Here are results for 16 molecules from patent US11345711B2, “8,9-dihydroimidazo[1,2-a]pyrimido[5,4-e]pyrimidin-5(6H)-ones” (IMPACT THERAPEUTICS (SHANGHAI), INC, priority 2016, dated 2022).

For one experiment, the target named is Wee1 (h) (Homo sapiens, UniProt P30291). The experiment in a line: Wee1 kinase (h) detection method, [γ-33P]-ATP filter assay. The format is biochemical.
In the next experiment the test system is NCI-H1299 cells. The experiment is described as follows: MTT based cell viability assay on NCI-H1299 cells. As to conditions: Homo sapiens, read-out: IC50, growth inhibition of NCI-H1299 cells. An outline of the steps:
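Viability read-out was MTT reduction (0.5 mg/mL, 4 h, absorbance 552/630/690 nm) after 3-day compound exposure at 37 °C of NCI-H1299 cells seeded at 1000 per well. Dilutions spanned 10 μM–0.01 μM in DMSO, final DMSO 1‰. Survival-versus-concentration curves were fitted sigmoidally to give IC50.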

The test system of another experiment is LoVo cells. The experiment in a line: MTT based cell viability assay on LoVo cells. The note with it: Homo sapiens, LoVo, 72 h, 3 d, read-out: IC50, growth inhibition of LoVo cells. An outline of the steps:
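Inhibition of LoVo proliferation was derived as IC50 from a sigmoidal dose-response fit of cell survival. Readout was MTT (0.5 mg/mL, 4 h) with absorbance at 552/630/690 nm, after 3-day treatment at 37 °C. Eight-point series from 10 μM to 0.01 μM, DMSO control, 1% DMSO final.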

Like-named read-outs stand apart in the source and are kept apart here.

Wee1 (h), sequence (P30291 whole entry): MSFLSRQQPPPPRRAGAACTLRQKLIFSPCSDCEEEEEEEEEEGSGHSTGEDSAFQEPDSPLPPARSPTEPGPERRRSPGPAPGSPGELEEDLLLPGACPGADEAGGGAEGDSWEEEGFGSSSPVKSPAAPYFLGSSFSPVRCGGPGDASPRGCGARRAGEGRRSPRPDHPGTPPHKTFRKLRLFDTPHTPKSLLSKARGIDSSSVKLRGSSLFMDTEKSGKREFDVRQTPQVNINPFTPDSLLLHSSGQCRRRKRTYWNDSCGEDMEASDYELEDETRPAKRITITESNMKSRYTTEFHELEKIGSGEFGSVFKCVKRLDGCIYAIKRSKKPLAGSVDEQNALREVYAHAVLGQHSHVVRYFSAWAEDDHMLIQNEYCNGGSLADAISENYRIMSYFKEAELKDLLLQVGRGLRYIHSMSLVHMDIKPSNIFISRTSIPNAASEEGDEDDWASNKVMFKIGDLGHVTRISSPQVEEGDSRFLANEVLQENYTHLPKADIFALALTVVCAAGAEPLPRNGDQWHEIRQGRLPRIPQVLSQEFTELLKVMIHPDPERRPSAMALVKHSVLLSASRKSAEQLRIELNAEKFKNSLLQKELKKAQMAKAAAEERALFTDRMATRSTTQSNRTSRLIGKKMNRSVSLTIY

Broadly, the IC50 is the concentration at which inhibition is half-maximal. Turning to `Cc1cc(Nc2ncc3c(n2)N2CCN=C2N(c2c(Cl)cccc2Cl)C3=O)cc2c1CCN(C)C2` [Example 131, 6-(2,6-Dichlorophenyl)-2-((2,5-dimethyl-1,2,3,4-tetrahydroisoquinolin-7-yl)amino)-8,9-dihydroimidazo[1,2-a]pyrimido[5,4-e]pyrimidin-5(6H)-one], the “Inh. (%) of Wee1 kinase enzyme activity” value at Wee1 (h) (C 0.01 μm compound) worked out at 27%; on Wee1 (h) (C 0.1 μm compound) it was 89%; on Wee1 (h) (C 1 μm compound), 100%. For the same molecule, the IC50 turned out to be 58.8 nM in the experiment with NCI-H1299 cells (NCI-H1299, NCI-H1299 cells) and 187 nM in the experiment on LoVo cells.

As to `Cc1cc(Nc2ncc3c(n2)N2CCN=C2N(c2c(Cl)cccc2Cl)C3=O)cc2c1C(C)(C)CN(C)C2` [Example 133, 6-(2,6-Dichlorophenyl)-2-((2,4,4,5-tetramethyl-1,2,3,4-tetrahydroisoquinolin-7-yl)amino)-8,9-dihydroimidazo[1,2-a]pyrimido[5,4-e]pyrimidin-5(6H)-one], the “Inh. (%) of Wee1 kinase enzyme activity” value on Wee1 (h) (C 1 μm compound) turned out to be 95%. For the same molecule, the IC50 in the experiment on NCI-H1299 cells (NCI-H1299, NCI-H1299 cells) came to 46 nM; with LoVo cells it was 165 nM.

As to `C[C@@H]1CN(c2c(Cl)cc(Nc3ncc4c(n3)N3CCN=C3N(c3c(Cl)cccc3Cl)C4=O)cc2Cl)C[C@H](C)N1C` [Example 136, 6-(2,6-Dichlorophenyl)-2-((3,5-dichloro-4-((3S,5R)-3,4,5-trimethylpiperazin-1-yl)phenyl)amino)-8,9-dihydroimidazo[1,2-a]pyrimido[5,4-e]pyrimidin-5(6H)-one], the “Inh. (%) of Wee1 kinase enzyme activity” value on Wee1 (h) (C 0.01 μm compound) was found to be 36%; on Wee1 (h) (C 0.1 μm compound), 75%; at Wee1 (h) (C 1 μm compound) it was 94%. The IC50 in the experiment on NCI-H1299 cells (NCI-H1299, NCI-H1299 cells) was determined as 310 nM; in the experiment on LoVo cells, 214 nM.

Consider `Cc1cc(Nc2ncc3c(n2)N2CCN=C2N(c2c(Cl)cccc2Cl)C3=O)cc(Cl)c1N1C[C@@H](C)N(C)[C@@H](C)C1` [Example 137, 6-(2,6-Dichlorophenyl)-2-((3-chloro-5-methyl-4-((3S,5R)-3,4,5-trimethylpiperazin-1-yl)phenyl)amino)-8,9-dihydroimidazo[1,2-a]pyrimido[5,4-e]pyrimidin-5(6H)-one], for which the “Inh. (%) of Wee1 kinase enzyme activity” value on Wee1 (h) (C 0.01 μm compound) came to 20%; at Wee1 (h) (C 0.1 μm compound) it was 78%; on Wee1 (h) (C 1 μm compound), 96%. Moreover, the IC50 in the experiment with NCI-H1299 cells (NCI-H1299, NCI-H1299 cells) stood at 122 nM; in the experiment with LoVo cells, 114 nM.

Turning to `CN(C)C1CCN(c2ccc(Nc3ncc4c(n3)N3CCN=C3N(c3c(Cl)cccc3Cl)C4=O)cc2)CC1` [Example 138, 6-(2,6-Dichlorophenyl)-2-((4-(4-(dimethylamino)piperidin-1-yl)phenyl)amino)-8,9-dihydroimidazo[1,2-a]pyrimido[5,4-e]pyrimidin-5(6H)-one], the “Inh. (%) of Wee1 kinase enzyme activity” value at Wee1 (h) (C 0.01 μm compound) turned out to be 22%; on Wee1 (h) (C 0.1 μm compound), 77%; on Wee1 (h) (C 1 μm compound) it was 96%. Also, the IC50 in the experiment on NCI-H1299 cells (NCI-H1299, NCI-H1299 cells) amounted to 170 nM; in the experiment with LoVo cells it was 199 nM.

`CN(C)C1CCN(c2ccc(Nc3ncc4c(n3)N3CCN=C3N(c3c(Cl)cccc3Cl)C4=O)cc2Cl)CC1` [Example 139, 6-(2,6-Dichlorophenyl)-2-((3-chloro-4-(4-(dimethylamino)piperidin-1-yl)phenyl)amino)-8,9-dihydroimidazo[1,2-a]pyrimido[5,4-e]pyrimidin-5(6H)-one]: the “Inh. (%) of Wee1 kinase enzyme activity” value on Wee1 (h) (C 0.01 μm compound) was 31%; on Wee1 (h) (C 0.1 μm compound), 81%; on Wee1 (h) (C 1 μm compound), 95%. For the same molecule, the IC50 was determined as 85.9 nM in the experiment on NCI-H1299 cells (NCI-H1299, NCI-H1299 cells) and 45.6 nM in the experiment on LoVo cells.

Take `CN(C)C1CCN(c2ccc(Nc3ncc4c(n3)N3CCN=C3N(c3c(Cl)cccc3Cl)C4=O)cc2Br)CC1` [Example 140, 6-(2,6-Dichlorophenyl)-2-((3-bromo-4-(4-(dimethylamino)piperidin-1-yl)phenyl)amino)-8,9-dihydroimidazo[1,2-a]pyrimido[5,4-e]pyrimidin-5(6H)-one]: the “Inh. (%) of Wee1 kinase enzyme activity” value on Wee1 (h) (C 0.01 μm compound) is 32%; at Wee1 (h) (C 0.1 μm compound), 82%; at Wee1 (h) (C 1 μm compound), 98%. In addition, the IC50 in the experiment with NCI-H1299 cells (NCI-H1299, NCI-H1299 cells) turned out to be 92.9 nM; in the experiment with LoVo cells, 58.2 nM.

As to `CN(C)C1CCN(c2c(Cl)cc(Nc3ncc4c(n3)N3CCN=C3N(c3c(Cl)cccc3Cl)C4=O)cc2Cl)CC1` [Example 142, 6-(2,6-Dichlorophenyl)-2-((3,5-dichloro-4-(4-(dimethylamino)piperidin-1-yl)phenyl)amino)-8,9-dihydroimidazo[1,2-a]pyrimido[5,4-e]pyrimidin-5(6H)-one], the “Inh. (%) of Wee1 kinase enzyme activity” value at Wee1 (h) (C 0.01 μm compound) is on record as 22%; on Wee1 (h) (C 0.1 μm compound) it was 75%; on Wee1 (h) (C 1 μm compound) it was 95%. Moreover, the IC50 in the experiment with NCI-H1299 cells (NCI-H1299, NCI-H1299 cells) stood at 109 nM; in the experiment on LoVo cells, 51.4 nM.

As for `COc1cc(Nc2ncc3c(n2)N2CCN=C2N(c2c(Cl)cccc2Cl)C3=O)cc(Cl)c1N1CCC(N(C)C)CC1` [Example 144, 6-(2,6-Dichlorophenyl)-2-((3-chloro-4-(4-(dimethylamino)piperidin-1-yl)-5-methoxyphenyl)amino)-8,9-dihydroimidazo[1,2-a]pyrimido[5,4-e]pyrimidin-5(6H)-one], the figures for the “Inh. (%) of Wee1 kinase enzyme activity” value at Wee1 (h) (C 0.01 μm compound), on Wee1 (h) (C 0.1 μm compound) and on Wee1 (h) (C 1 μm compound) were 19%, 76% and 97%, respectively. The IC50 in the experiment on NCI-H1299 cells (NCI-H1299, NCI-H1299 cells) was found to be 140 nM; with LoVo cells it was 61.5 nM.

As to `CN1CCN(c2ccc(Nc3ncc4c(n3)N3CCN=C3N(c3c(Cl)cccc3Cl)C4=O)cc2Br)CC1` [Example 145, 6-(2,6-Dichlorophenyl)-2-((3-bromo-4-(4-methylpiperazin-1-yl)phenyl)amino)-8,9-dihydroimidazo[1,2-a]pyrimido[5,4-e]pyrimidin-5(6H)-one], the “Inh. (%) of Wee1 kinase enzyme activity” value at Wee1 (h) (C 0.01 μm compound) is 21%; at Wee1 (h) (C 0.1 μm compound), 72%; on Wee1 (h) (C 1 μm compound), 97%. Moreover, the IC50 in the experiment on NCI-H1299 cells (NCI-H1299 cells) came to 219 nM; in the experiment on LoVo cells, 84.9 nM.

For `COc1cc(Nc2ncc3c(n2)N2CCN=C2N(c2c(Cl)cccc2Cl)C3=O)ccc1N1CCN(C)CC1` [Example 146, 6-(2,6-Dichlorophenyl)-2-((3-methoxy-4-(4-methylpiperazin-1-yl)phenyl)amino)-8,9-dihydroimidazo[1,2-a]pyrimido[5,4-e]pyrimidin-5(6H)-one], the “Inh. (%) of Wee1 kinase enzyme activity” value on Wee1 (h) (C 0.01 μm compound) was 9%; on Wee1 (h) (C 0.1 μm compound) it was 85%; on Wee1 (h) (C 1 μm compound) it was 95%. In addition, the IC50 in the experiment on NCI-H1299 cells (NCI-H1299 cells) came out at 250 nM; in the experiment with LoVo cells, 83.3 nM.

Turning to `CN1CCN(c2c(F)cc(Nc3ncc4c(n3)N3CCN=C3N(c3c(Cl)cccc3Cl)C4=O)cc2Cl)CC1` [Example 147, 6-(2,6-Dichlorophenyl)-2-((3-chloro-5-fluoro-4-(4-methylpiperazin-1-yl)phenyl)amino)-8,9-dihydroimidazo[1,2-a]pyrimido[5,4-e]pyrimidin-5(6H)-one], the “Inh. (%) of Wee1 kinase enzyme activity” value on Wee1 (h) (C 0.01 μm compound) turned out to be 42%; on Wee1 (h) (C 0.1 μm compound), 86%; on Wee1 (h) (C 1 μm compound) it was 96%. Further, the IC50 in the experiment with NCI-H1299 cells (NCI-H1299, NCI-H1299 cells) came out at 209 nM; with LoVo cells, 91.1 nM.

`Cc1cc(Nc2ncc3c(n2)N2CCN=C2N(c2c(Cl)cccc2Cl)C3=O)cc(F)c1N1CCN(C)CC1` [Example 148, 6-(2,6-Dichlorophenyl)-2-((3-fluoro-5-methyl-4-(4-methylpiperazin-1-yl)phenyl)amino)-8,9-dihydroimidazo[1,2-a]pyrimido[5,4-e]pyrimidin-5(6H)-one]: the “Inh. (%) of Wee1 kinase enzyme activity” value was found to be 40% at Wee1 (h) (C 0.01 μm compound), 90% on Wee1 (h) (C 0.1 μm compound) and 94% on Wee1 (h) (C 1 μm compound). In addition, the IC50 is 123 nM in the experiment with NCI-H1299 cells (NCI-H1299, NCI-H1299 cells) and 39.8 nM in the experiment with LoVo cells.

Regarding `COc1cc(Nc2ncc3c(n2)N2CCN=C2N(c2c(Cl)cccc2Cl)C3=O)cc(F)c1N1CCN(C)CC1` [Example 149, 6-(2,6-Dichlorophenyl)-2-((3-fluoro-5-methoxy-4-(4-methylpiperazin-1-yl)phenyl)amino)-8,9-dihydroimidazo[1,2-a]pyrimido[5,4-e]pyrimidin-5(6H)-one], the “Inh. (%) of Wee1 kinase enzyme activity” value at Wee1 (h) (C 0.01 μm compound) is recorded as 22%; at Wee1 (h) (C 0.1 μm compound), 72%; at Wee1 (h) (C 1 μm compound), 94%. For the same molecule, the IC50 is 113 nM in the experiment on NCI-H1299 cells (NCI-H1299, NCI-H1299 cells) and 59.4 nM with LoVo cells.

As to `CN1CCN(c2c(Cl)cc(Nc3ncc4c(n3)N3CCN=C3N(c3c(Cl)cccc3Cl)C4=O)cc2Cl)CC1` [Example 150, 6-(2,6-Dichlorophenyl)-2-((3,5-dichloro-4-(4-methylpiperazin-1-yl)phenyl)amino)-8,9-dihydroimidazo[1,2-a]pyrimido[5,4-e]pyrimidin-5(6H)-one], the “Inh. (%) of Wee1 kinase enzyme activity” value on Wee1 (h) (C 0.01 μm compound) worked out at 20%; at Wee1 (h) (C 0.1 μm compound) it was 81%; at Wee1 (h) (C 1 μm compound) it was 93%. In addition, the IC50 is 347 nM in the experiment on NCI-H1299 cells (NCI-H1299, NCI-H1299 cells) and 116 nM in the experiment with LoVo cells.

`Cc1cc(Nc2ncc3c(n2)N2CCN=C2N(c2c(Cl)cccc2Cl)C3=O)cc(Cl)c1N1CCN(C)CC1` [Example 151, 6-(2,6-Dichlorophenyl)-2-((3-chloro-5-methyl-4-(4-methylpiperazin-1-yl)phenyl)amino)-8,9-dihydroimidazo[1,2-a]pyrimido[5,4-e]pyrimidin-5(6H)-one]: the “Inh. (%) of Wee1 kinase enzyme activity” value on Wee1 (h) (C 0.01 μm compound) was determined as 42%; on Wee1 (h) (C 0.1 μm compound), 98%; on Wee1 (h) (C 1 μm compound) it was 97%. The IC50 worked out at 175 nM in the experiment with NCI-H1299 cells (NCI-H1299, NCI-H1299 cells) and 30.8 nM with LoVo cells.
